Test: absorption of moisturizing composition by the skin
Assay type: in vivo
Conditions: replacing 20% by weight of the avocado oil or apricot kernel oil in moisturizing compositions
Excerpt: The triglyceride quaternary ammonium compounds of formula I in which R is C16 -C20 alkyl are valuable additives to a range of cosmetic and toiletry compositions. They are particularly useful in moisturizing compositions containing natural triglycerides which are not easily absorbed by the skin. Examples of such natural triglycerides are avocado oil and apricot kernel oil which are the major natural triglyceride oil components of certain commercially available moisturizing lotions and creams.

Question: For CCCCCCCCCCCCCCCCCC[N+](C)(C)CC(=O)OC(CC=CCCCCCCCC(=O)OCC(COC(=O)CCCCCCCC=CCC(CCCCCC)OC(=O)C[N+](C)(C)CCCCCCCCCCCCCCCCCC)OC(=O)CCCCCCCC=CCC(CCCCCC)OC(=O)C[N+](C)(C)CCCCCCCCCCCCCCCCCC)CCCCCC (stereo not shown) [Example 1, propane-1,2,3-tri[octadec-9-en-12-(oxycarbonyl-N-methylene-N,N-dimethyl-N-octadecylammonium chloride)oate]], which “improvement in the absorption of the composition by the skin” value is on record?
Answer: Its value is “significant improvement”.

Reference: patent US4857310A, “Triglyceride quaternary ammonium compounds, their preparation and use” (The Gillette Company, priority 1987, dated 1989)
